# Experimental data from patent publication US20190071416A1, “COMPOUNDS FOR TREATMENT OF CANCER AND EPIGENETICS” (Agency For Science, Technology and Research, priority 2015, published 2019).
# pIC50: −log10 of the molar value.
# Target: T1, SMYD3 (Homo sapiens, UniProt Q9H7B4)
# T1 sequence (Q9H7B4 1-428): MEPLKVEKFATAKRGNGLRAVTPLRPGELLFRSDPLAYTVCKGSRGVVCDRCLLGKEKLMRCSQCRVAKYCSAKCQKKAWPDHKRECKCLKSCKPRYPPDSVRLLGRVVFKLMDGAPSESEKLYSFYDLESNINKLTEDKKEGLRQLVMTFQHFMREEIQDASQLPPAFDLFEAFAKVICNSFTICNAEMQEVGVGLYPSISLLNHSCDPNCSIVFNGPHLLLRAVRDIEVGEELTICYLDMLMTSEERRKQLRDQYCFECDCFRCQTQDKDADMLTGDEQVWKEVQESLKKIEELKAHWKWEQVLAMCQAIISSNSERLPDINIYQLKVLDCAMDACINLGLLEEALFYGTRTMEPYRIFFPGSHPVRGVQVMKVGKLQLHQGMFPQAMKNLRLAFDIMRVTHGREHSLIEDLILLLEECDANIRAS
# Experiment: SMYD3 biochemical assay (MTase-Glo, MAP3K2 peptide substrate)
# Conditions: not given
# In short: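 Methylation of MAP3K2 peptide (10 µM final) with SAM (1.0 µM final) by SMYD3, 30 min at room temperature. SAH formed was enzymatically converted to ATP and detected as luminescence with MTase-Glo reagents; IC50 by non-linear regression.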
row,activity against SMYD3,Compound
1,inactive,"NC(=O)C1CCN(CC(=O)Nc2ccc(Br)cc2)CC1 [X1, reference compound]"

# Same assay, conditions: Table 3; MTase assay, MAP3K2 peptide substrate; read-out: IC50
row,Compound,pIC50
1,"CCCOC(=O)N1CCN(C(=O)c2ccc3c(Cl)c4c(nc3c2)CCCC4)CC1CC (centres unmarked) [A030, Propyl 4-(9-chloro-5,6,7,8-tetrahydroacridine-3-carbonyl)-2-ethylpiperazine-1-carboxylate]",6.20
2,"CCCOC(=O)N1CCN(C(=O)c2ccc3c(Cl)c4c(nc3c2)CC(c2ccnc(C(N)=O)c2)CC4)[C@@H](C)C1 (stereo partly drawn) [A145, Propyl (3S)-4-(6-(2-carbamoylpyridin-4-yl)-9-chloro-5,6,7,8-tetrahydroacridine-3-carbonyl)-3-methylpiperazine-1-carboxylate]",6.66
3,"CCCOC(=O)N1CCN(C(=O)c2ccc3c(Cl)c4c(nc3c2)CC(CCNC(=N)N)CC4)[C@@H](C)C1 (stereo partly drawn) [A091, Propyl (3S)-4-(9-chloro-6-(2-guanidinoethyl)-5,6,7,8-tetrahydroacridine-3-carbonyl)-3-methylpiperazine-1-carboxylate]",6.85
4,"CCCOC(=O)N1CCN(C(=O)c2ccc3c(Cl)c4c(nc3c2)CC(C#N)CC4)CC1 (centres unmarked) [A025, Propyl 4-(9-chloro-6-cyano-5,6,7,8-tetrahydroacridine-3-carbonyl)piperazine-1-carboxylate]",5.72
5,"CCCOC(=O)N1CCN(C(=O)c2ccc3c(Cl)c4c(nc3c2)CCCC4)C(CC)C1 (centres unmarked) [A016, Propyl 4-(9-chloro-5,6,7,8-tetrahydroacridine-3-carbonyl)-3-ethylpiperazine-1-carboxylate]",6.19
6,"CCCOC(=O)N1CCN(C(=O)c2ccc3c(Cl)c4c(nc3c2)CC(c2ncccc2F)CC4)CC1 (centres unmarked) [A099, Propyl 4-(9-chloro-6-(3-fluoropyridin-2-yl)-5,6,7,8-tetrahydroacridine-3-carbonyl)piperazine-1-carboxylate]",6.23
7,"CCCOC(=O)N1CCN(C(=O)c2ccc3c(Cl)c4c(nc3c2)CCC(CC(=O)OC)C4)C[C@H]1C (stereo partly drawn) [A063, Propyl (2R)-4-(9-chloro-7-(2-methoxy-2-oxoethyl)-5,6,7,8-tetrahydroacridine-3-carbonyl)-2-methylpiperazine-1-carboxylate]",6.60
8,"CCCOC(=O)N1CCN(C(=O)c2ccc3c(Cl)c4c(nc3c2)CCCC4)CC1C#N (centres unmarked) [A117, Propyl 4-(9-chloro-5,6,7,8-tetrahydroacridine-3-carbonyl)-2-cyanopiperazine-1-carboxylate]",6.92
9,"O=C(c1ccc2c(Cl)c3c(nc2c1)CCCC3)N1CCN(C(=O)c2cc(C3CC3)on2)CC1 [A006, (9-Chloro-5,6,7,8-tetrahydroacridin-3-yl)(4-(5-cyclopropylisoxazole-3-carbonyl)piperazin-1-yl)methanone]",5.17
10,"CCCOC(=O)N1CCN(C(=O)c2ccc3c(Cl)c4c(nc3c2)CCCC4)CC1 [A001, Propyl 4-(9-chloro-5,6,7,8-tetrahydroacridine-3-carbonyl)piperazine-1-carboxylate]",6.40
11,"CCCOC(=O)N1CCN(C(=O)c2ccc3c(Cl)c4c(nc3c2)CC(c2cccnc2)CC4)CC1 (centres unmarked) [A027, Propyl 4-(9-chloro-6-(pyridin-3-yl)-5,6,7,8-tetrahydroacridine-3-carbonyl)piperazine-1-carboxylate]",6.40
12,"CCCOC(=O)N1CC2CCCC1CN2C(=O)c1ccc2c(Cl)c3c(nc2c1)CCCC3 (centres unmarked) [A080, Propyl 8-(9-chloro-5,6,7,8-tetrahydroacridine-3-carbonyl)-6,8-diazabicyclo[3.2.2]nonane-6-carboxylate]",6.77
13,"Cc1cc(C(=O)N2CCN(C(=O)c3ccc4c(Cl)c5c(nc4c3)CCCC5)CC2)no1 [A012, (9-Chloro-5,6,7,8-tetrahydroacridin-3-yl)(4-(5-methylisoxazole-3-carbonyl)piperazin-1-yl)methanone]",5.78
14,"CCCOC(=O)N1CCN(C(=O)c2ccc3c(Cl)c4c(nc3c2)CC(c2nccs2)CC4)CC1 (centres unmarked) [A128, Propyl 4-(9-chloro-6-(thiazol-2-yl)-5,6,7,8-tetrahydroacridine-3-carbonyl)piperazine-1-carboxylate]",7.00
15,"CCCOC(=O)N1CCN(C(=O)c2ccc3c(Cl)c4c(nc3c2)CC(c2ncccc2F)CC4)C[C@H]1C (stereo partly drawn) [A115, Propyl (2R)-4-(9-chloro-6-(3-fluoropyridin-2-yl)-5,6,7,8-tetrahydroacridine-3-carbonyl)-2-methylpiperazine-1-carboxylate]",6.57

# More lines, now with the values ahead:
row,pIC50,Compound
1,5.96,"CCCOC(=O)N1CCN(C(=O)c2ccc3c(Cl)cc(-c4cnn(C(C)C)c4)nc3c2)CC1 [B229, Propyl 4-(4-chloro-2-(1-isopropyl-1H-pyrazol-4-yl)quinoline-7-carbonyl)piperazine-1-carboxylate]"
2,6.59,"CCCOC(=O)N1CCN(C(=O)c2ccc3c(Cl)cc(-c4ccc5nn(C)cc5c4)nc3c2)C[C@@H]1C [B170, Propyl (S)-4-(4-chloro-2-(2-methyl-2H-indazol-5-yl)quinoline-7-carbonyl)-2-methylpiperazine-1-carboxylate]"
3,6.82,CCCOC(=O)N1CCN(C(=O)c2ccc3c(Cl)cc(-c4ccc5c(cnn5C)c4)nc3c2)CC1 [B123]
4,6.82,"CCCOC(=O)N1CCN(C(=O)c2ccc3c(Cl)cc(-c4ccc(CO)c(F)c4)nc3c2)CC1 [B257, Propyl 4-(4-chloro-2-(3-fluoro-4-(hydroxymethyl)phenyl)quinoline-7-carbonyl)piperazine-1-carboxylate]"
5,6.11,"CCCOC(=O)N1CCN(C(=O)c2ccc3c(Cl)cc(-c4ccnc(C)c4)nc3c2)CC1 [B115, Propyl 4-(4-chloro-2-(2-methylpyridin-4-yl)quinoline-7-carbonyl)piperazine-1-carboxylate]"
6,6.10,"CCCOC(=O)N1CCN(C(=O)c2ccc3c(Cl)cc(-c4ccc(N5CCCC5)cc4)nc3c2)CC1 [B050, Propyl 4-(4-chloro-2-(4-(pyrrolidin-1-yl)phenyl)quinoline-7-carbonyl)piperazine-1-carboxylate]"
7,6.34,"CCCOC(=O)N1CCN(C(=O)c2ccc3c(Cl)cc(-c4ccc5occc5c4)nc3c2)CC1 [B203, Propyl 4-(2-(benzofuran-5-yl)-4-chloroquinoline-7-carbonyl)piperazine-1-carboxylate]"
8,7.26,"CCCOC(=O)N1CCN(C(=O)c2ccc3c(Cl)cc(-c4cccc(CO)c4)nc3c2)C[C@H]1C [B142, Propyl (R)-4-(4-chloro-2-(3-(hydroxymethyl)phenyl)quinoline-7-carbonyl)-2-methylpiperazine-1-carboxylate]"
9,5.68,"C#Cc1cccc(-c2cc(Cl)c3ccc(C(=O)N4CCN(C(=O)OCCC)CC4)cc3n2)c1 [B070, Propyl 4-(4-chloro-2-(3-ethynylphenyl)quinoline-7-carbonyl)piperazine-1-carboxylate]"
10,7.26,"CCCOC(=O)N1CCN(C(=O)c2ccc3c(Cl)cc(-c4ccc(NC(C)=O)cc4)nc3c2)C[C@H]1C [B121, Propyl (R)-4-(2-(4-acetamidophenyl)-4-chloroquinoline-7-carbonyl)-2-methylpiperazine-1-carboxylate]"
11,6.36,"CCCOC(=O)N1CCN(C(=O)c2ccc3c(Cl)cc(-c4ccc(OC)cc4)nc3c2)C[C@H]1C [B045, Propyl (R)-4-(4-chloro-2-(4-methoxyphenyl)quinoline-7-carbonyl)-2-methylpiperazine-1-carboxylate]"
12,7.34,"CCCOC(=O)N1CCN(C(=O)c2ccc3c(Cl)cc(-c4ccc5[nH]c(C)nc5c4)nc3c2)CC1 [B222, Propyl 4-(4-chloro-2-(2-methyl-1H-benzo[d]imidazol-5-yl)quinoline-7-carbonyl)piperazine-1-carboxylate]"
13,7.33,"CCCOC(=O)N1CCN(C(=O)c2ccc3c(Cl)cc(-c4cccc(CN)c4)nc3c2)C[C@@H]1C [B145, Propyl (S)-4-(2-(3-(aminomethyl)phenyl)-4-chloroquinoline-7-carbonyl)-2-methylpiperazine-1-carboxylate]"
14,6.03,"C#Cc1ccc(-c2cc(Cl)c3ccc(C(=O)N4CCN(C(=O)OCCC)CC4)cc3n2)cc1 [B057, Propyl 4-(4-chloro-2-(4-ethynylphenyl)quinoline-7-carbonyl)piperazine-1-carboxylate]"
15,6.70,"CCCOC(=O)N1CCN(C(=O)c2ccc3c(Cl)cc(-c4ccc(O)c(F)c4)nc3c2)[C@@H](C)C1 [B162, Propyl (S)-4-(4-chloro-2-(3-fluoro-4-hydroxyphenyl)quinoline-7-carbonyl)-3-methylpiperazine-1-carboxylate]"
16,7.00,"CCCOC(=O)N1CCN(C(=O)c2ccc3c(Cl)cc(-c4ccc5[nH]c(O)nc5c4)nc3c2)CC1 [B184, Propyl 4-(4-chloro-2-(2-hydroxy-1H-benzo[d]imidazol-5-yl)quinoline-7-carbonyl)piperazine-1-carboxylate]"
17,5.52,"CCCOC(=O)N1CCN(C(=O)c2ccc3c(Cl)cc(-c4cc(F)cc(F)c4)nc3c2)CC1 [B048, Propyl 4-(4-chloro-2-(3,5-difluorophenyl)quinoline-7-carbonyl)piperazine-1-carboxylate]"
18,7.60,"Cn1ccc(-c2cc(Cl)c3ccc(C(=O)N4CCN(C(=O)c5cn(C6CC6)nn5)CC4)cc3n2)c1 [D003, (4-Chloro-2-(1-methyl-1H-pyrrol-3-yl)quinolin-7-yl)(4-(1-cyclopropyl-1H-1,2,3-triazole-4-carbonyl)piperazin-1-yl)methanone]"

# Same assay, conditions: Table 4; prior art compounds; read-out: IC50
row,pIC50,Compound
1,< 3.60,"NC(=O)C1CCN(CC(=O)Nc2ccc(Br)cc2)CC1 [X1, reference compound]"
